Earlier results on four compounds are cited in US12083078B2, “Parenteral cannabinoid formulations and uses thereof” (priority 2020, dated 2024).

For this data set the following is noted: buffering pH range.

Each structure is given as a SMILES string.

In the case of `CC(=O)O` [Acetic Acid], the pH range is recorded as 4-6.

On to `O=C(O)CC(O)(CC(=O)O)C(=O)O` [Citric Acid], for which the pH range is given as 3-7.

Regarding `CC(O)C(=O)O` (stereo not shown) [Lactic Acid], the pH range is on record as 3-4.5.

As to `O=P(O)(O)O` [Sodium Phosphate], the pH range is given as 8-8.
